Assay results from patent publication US11026427B2, “Microbiocidal oxadiazole derivatives” (SYNGENTA PARTICIPATIONS AG, priority 2016, dated 2021).

Columns and labels:
Phakopsora pachyrhizi = Phakopsora pachyrhizi / soybean / leaf disc preventative (Asian soybean rust); format: in vivo; details: foliar, 200 ppm in the applied formulation, compared to untreated control, read-out: disease control
Protocol: (§1) Leaf disks or leaf segments of various plant species are cut from plants grown in a greenhouse. The cut leaf disks or segments are placed in multiwell plates (24-well format) onto water agar. The leaf disks are sprayed with a test solution before (preventative) or after (curative) inoculation. Compounds to be tested are prepared as DMSO solutions (max. 10 mg/ml) which are diluted to the appropriate concentration with 0.025% Tween20 just before spraying. The inoculated leaf disks or segments are incubated under defined conditions (temperature, relative humidity, light, etc.) according to the respective test system. A single evaluation of disease level is carried out 3 to 14 days after inoculation, depending on the pathosystem. Percent disease control relative to the untreated check leaf disks or segments is then calculated.
Soybean leaf disks are placed on water agar in multiwell plates (24-well format) and sprayed with the formulated test compound diluted in water. One day after application leaf discs are inoculated by spraying a spore suspension on the lower leaf surface. After an incubation period in a climate cabinet of 24-36 hours in darkness at 20° C. and 75% rh leaf disc are kept at 20° C. with 12 h light/day and 75% rh. The activity of a compound is assessed as percent disease control compared to untreated when an appropriate level of disease damage appears in untreated check leaf disks (12 to 14 days after application).
(§2) The following compounds at 200 ppm in the applied formulation give at least 80% disease control in this test when compared to untreated control leaf disks under the same conditions, which show extensive disease development.

Uromyces viciae-fabae = Uromyces viciae-fabae / field bean / leaf disc preventative (faba-bean rust); format: in vivo; details: foliar, 288 h, 100 ppm in the applied formulation, compared to untreated control, read-out: disease control
Protocol: as §1
Field bean leaf discs are placed on water agar in multiwell plates (96-well format) and 10 μl of the formulated test compound diluted in acetone and a spreader pipetted onto the leaf disc. Two hours after application leaf discs are inoculated by spraying a spore suspension on the lower leaf surface. The leaf discs are incubated in a climate cabinet at 22° C. with 18 hour day and 70% relative humidity. The activity of a compound is assessed as percent disease control compared to untreated when an appropriate level of disease damage appears in untreated check leaf disks (12 days after application).
The following compounds at 100 ppm in the applied formulation give at least 80% disease control in this test when compared to untreated control leaf discs under the same conditions, which show extensive disease development.

[1] = test system: Glomerella lacenarium (Colletotrichum lacenarium); test: Glomerella lacenarium (Colletotrichum lacenarium) liquid culture / cucumber / preventative (anthracnose); format: cell-based; details: 20 ppm in the applied formulation, growth inhibition measured photometrically, compared to untreated control, read-out: disease control
Protocol: Mycelia fragments or conidia suspensions of a fungus prepared either freshly from liquid cultures of the fungus or from cryogenic storage, are directly mixed into nutrient broth. DMSO solutions of the test compound (max. 10 mg/ml) are diluted with 0.025% Tween20 by a factor of 50 and 10 μl of this solution is pipetted into a microtiter plate (96-well format). The nutrient broth containing the fungal spores/mycelia fragments is then added to give an end concentration of the tested compound. The test plates are incubated in the dark at 24° C. and 96% relative humidity. The inhibition of fungal growth is determined photometrically after 2 to 7 days, depending on the pathosystem, and percent antifungal activity relative to the untreated check is calculated.
Conidia of the fungus from cryogenic storage are directly mixed into nutrient broth (PDB—potato dextrose broth). After placing a (DMSO) solution of test compound into a microtiter plate (96-well format), the nutrient broth containing the fungal spores is added. The test plates are incubated at 24° C. and the inhibition of growth is measured photometrically 3 to 4 days after application.
The following compounds at 20 ppm in the applied formulation give at least 80% disease control in this test when compared to untreated control under the same conditions, which show extensive disease development.

[2] = test system: Puccinia recondita f. Sp. tritici; test: Puccinia recondita f. sp. tritici / wheat / leaf disc preventative (brown rust); format: in vivo; details: foliar, 200 ppm in the applied formulation, compared to untreated control, read-out: disease control
Protocol: as §1, with “calculated. Wheat leaf segments cv. Kanzler were placed on agar in multiwell plates (24-well format) and sprayed with the formulated test compound diluted in water. The leaf disks were inoculated with a spore suspension of the fungus 1 day after application. The inoculated leaf segments were incubated at 19° C. and 75% relative humidity (rh) under a light regime of 12 hours light/12 hours darkness in a climate cabinet and the activity of a compound was assessed as percent disease control compared to untreated when an appropriate level of disease damage appears in untreated check leaf segments (7 to 9 days after application). The following compounds at 200 ppm in the applied formulation give at least 80% disease control in this test when compared to untreated control leaf disks under the same conditions, which show extensive disease development.” for “calculated.”

[3] = test system: Puccinia recondita f. Sp. tritici; test: Puccinia recondita f. sp. tritici / wheat / leaf disc curative (brown rust); format: in vivo; details: foliar, 200 ppm in the applied formulation, compared to untreated control, read-out: disease control
Protocol: as §1
Wheat leaf segments cv. Kanzler are placed on agar in multiwell plates (24-well format). The leaf segments are then inoculated with a spore suspension of the fungus. Plates were stored in darkness at 19° C. and 75% relative humidity. The formulated test compound diluted in water was applied 1 day after inoculation. The leaf segments were incubated at 19° C. and 75% relative humidity under a light regime of 12 hours light/12 hours darkness in a climate cabinet and the activity of a compound was assessed as percent disease control compared to untreated when an appropriate level of disease damage appears in untreated check leaf segments (6 to 8 days after application).
as §2

SMILES | pest or weed control at 200 ppm (Phakopsora pachyrhizi) [%] | pest or weed control at 100 ppm (Uromyces viciae-fabae) [%] | melting point [°C] | inhibition of growth at 20 ppm [1] [%] | pest or weed control at 200 ppm [2] [%] | pest or weed control at 200 ppm [3] [%]
O=C(c1ccc(F)cc1)c1ccc(-c2noc(C(F)(F)F)n2)cc1 [Compound 1.1, (4-fluorophenyl)-[4-[5-(trifluoromethyl)-1,2,4-oxadiazol-3-yl]phenyl]methanone] | ≥ 80 | ≥ 80 | 125 to 135 | – | – | –
CC(=O)c1ccc(-c2noc(C(F)(F)F)n2)cc1 [Compound 1.2, 1-[4-[5-(trifluoromethyl)-1,2,4-oxadiazol-3-yl]phenyl]ethanone] | – | ≥ 80 | 105 to 115 | – | – | –
O=C(c1ccccc1)c1ccc(-c2noc(C(F)(F)F)n2)cc1 [Compound 1.3, phenyl-[4-[5-(trifluoromethyl)-1,2,4-oxadiazol-3-yl]phenyl]methanone] | ≥ 80 | ≥ 80 | 110 to 115 | ≥ 80 | – | –
CC(C)(C)C(=O)c1ccc(-c2noc(C(F)(F)F)n2)cc1 [Compound 1.4, 2,2-dimethyl-1-[4-[5-(trifluoromethyl)-1,2,4-oxadiazol-3-yl]phenyl]propan-1-one] | – | ≥ 80 | – | – | – | –
O=C(c1ccc(OC(F)(F)F)cc1)c1ccc(-c2noc(C(F)(F)F)n2)cc1 [Compound 1.6, [4-(trifluoromethoxy)phenyl]-[4-[5-(trifluoromethyl)-1,2,4-oxadiazol-3-yl]phenyl]methanone] | – | ≥ 80 | 104 to 107 | – | – | –
CC#CC(=O)c1ccc(-c2noc(C(F)(F)F)n2)cc1 [Compound 1.7, 1-[4-[5-(trifluoromethyl)-1,2,4-oxadiazol-3-yl]phenyl]but-2-yn-1-one] | – | ≥ 80 | 84 to 87 | ≥ 80 | ≥ 80 | –
C=CCC(=O)c1ccc(-c2noc(C(F)(F)F)n2)cc1 [Compound 1.8, 1-[4-[5-(trifluoromethyl)-1,2,4-oxadiazol-3-yl]phenyl]but-3-en-1-one] | – | ≥ 80 | 65 to 69 | ≥ 80 | – | –
O=C(c1ccc(-c2noc(C(F)(F)F)n2)cc1)C1CC1 [Compound 1.9, cyclopropyl-[4-[5-(trifluoromethyl)-1,2,4-oxadiazol-3-yl]phenyl]methanone] | – | ≥ 80 | 58 to 62 | ≥ 80 | – | –
CC(C)CC(=O)c1ccc(-c2noc(C(F)(F)F)n2)cc1 [Compound 1.10, 3-methyl-1-[4-[5-(trifluoromethyl)-1,2,4-oxadiazol-3-yl]phenyl]butan-1-one] | ≥ 80 | ≥ 80 | – | – | – | –
C/C=C/CC(=O)c1ccc(-c2noc(C(F)(F)F)n2)cc1 [Compound 1.11, 1-[4-[5-(trifluoromethyl)-1,2,4-oxadiazol-3-yl]phenyl]pent-3-en-1-one] | ≥ 80 | ≥ 80 | – | ≥ 80 | – | –
Cc1ccsc1C(=O)c1ccc(-c2noc(C(F)(F)F)n2)cc1 [Compound 1.12, (3-methyl-2-thienyl)-[4-[5-(trifluoromethyl)-1,2,4-oxadiazol-3-yl]phenyl]methanone] | ≥ 80 | ≥ 80 | – | ≥ 80 | – | –
Cc1ccnc(C(=O)c2ccc(-c3noc(C(F)(F)F)n3)cc2)c1 [Compound 1.27, (4-methyl-2-pyridyl)-[4-[5-(trifluoromethyl)-1,2,4-oxadiazol-3-yl]phenyl]methanone] | ≥ 80 | – | 76 to 81 | ≥ 80 | ≥ 80 | ≥ 80
CCCCC(O)c1ccc(-c2noc(C(F)(F)F)n2)cc1 (stereo not drawn) [Compound 2.3, 1-[4-[5-(trifluoromethyl)-1,2,4-oxadiazol-3-yl]phenyl]pentan-1-ol] | – | ≥ 80 | – | – | – | –
COc1ccc(C(O)c2ccc(-c3noc(C(F)(F)F)n3)cc2)cc1 (stereo not drawn) [Compound 2.4, (4-methoxyphenyl)-[4-[5-(trifluoromethyl)-1,2,4-oxadiazol-3-yl]phenyl]methanol] | ≥ 80 | ≥ 80 | 67 to 70 | – | – | –
OC(c1ccc(OC(F)(F)F)cc1)c1ccc(-c2noc(C(F)(F)F)n2)cc1 (stereo not drawn) [Compound 2.5, [4-(trifluoromethoxy)phenyl]-[4-[5-(trifluoromethyl)-1,2,4-oxadiazol-3-yl]phenyl]methanol] | – | ≥ 80 | 90 to 93 | ≥ 80 | – | –
OC(c1ccc(-c2noc(C(F)(F)F)n2)cc1)C1CC1 (stereo not drawn) [Compound 2.7, cyclopropyl-[4-[5-(trifluoromethyl)-1,2,4-oxadiazol-3-yl]phenyl]methanol] | – | ≥ 80 | 69 to 73 | ≥ 80 | ≥ 80 | –
C=C(C)C(O)c1ccc(-c2noc(C(F)(F)F)n2)cc1 (stereo not drawn) [Compound 2.8, 2-methyl-1-[4-[5-(trifluoromethyl)-1,2,4-oxadiazol-3-yl]phenyl]prop-2-en-1-ol] | ≥ 80 | ≥ 80 | – | ≥ 80 | – | –
C/C=C/CC(O)c1ccc(-c2noc(C(F)(F)F)n2)cc1 (stereo not drawn) [Compound 2.9, 1-[4-[5-(trifluoromethyl)-1,2,4-oxadiazol-3-yl]phenyl]pent-3-en-1-ol] | – | ≥ 80 | – | ≥ 80 | – | –
Cc1ccsc1C(O)c1ccc(-c2noc(C(F)(F)F)n2)cc1 (stereo not drawn) [Compound 2.10, (3-methyl-2-thienyl)-[4-[5-(trifluoromethyl)-1,2,4-oxadiazol-3-yl]phenyl]methanol] | ≥ 80 | ≥ 80 | 68 to 73 | ≥ 80 | – | –
Cc1cc(C(O)c2ccc(-c3noc(C(F)(F)F)n3)cc2)on1 (stereo not drawn) [Compound 2.14, (3-methylisoxazol-5-yl)-[4-[5-(trifluoromethyl)-1,2,4-oxadiazol-3-yl]phenyl]methanol] | ≥ 80 | – | 84 to 90 | ≥ 80 | ≥ 80 | ≥ 80
